Legend:
Assay type in all cases: cell-based
E. coli BL21 = assay: MIC against Gram-negative bacteria: E. coli BL21; conditions: 5×10^5 CFU/mL; for MIC against E. coli BL21: 96-well plate, 37° C., 10 h
Summary of the method: (§1)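 Inocula prepared by growing LB cultures at 37° C to 0.5 McFarland, centrifuging at 4000×g, and resuspending in fresh medium. Final density 5×10^5 CFU/mL per well with two-fold dilutions of purified EGF domain protein; shaking incubation at 37° C.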

Moraxella catarrhalis = assay: MIC against Gram-negative bacteria: Moraxella catarrhalis; conditions: 5×10^5 CFU/mL; for MIC against M. catarrhalis: 96-well plate, 37° C., 10 h
Summary of the method: as §1

Citrobacter diversus = assay: MIC against Gram-negative bacteria: Citrobacter diversus; conditions: 5×10^5 CFU/mL; for MIC against C. diversus: 96-well plate, 37° C., 10 h
Summary of the method: as §1

Proteus mirabilis = assay: MIC against Gram-negative bacteria: Proteus mirabilis; conditions: 5×10^5 CFU/mL; for MIC against P. mirabilis: 96-well plate, 37° C., 10 h
Summary of the method: as §1

Aeromonas hydrophila = assay: MIC against Gram-negative bacteria: Aeromonas hydrophila; conditions: 5×10^5 CFU/mL; for MIC against A. hydrophila: 96-well plate, 37° C., 10 h
Summary of the method: as §1

Klebsiella pneumonia = assay: MIC against Gram-negative bacteria: Klebsiella pneumonia; conditions: 5×10^5 CFU/mL; for MIC against K. pneumonia: 96-well plate, 37° C., 10 h
Summary of the method: as §1

Pseudomonas aeruginosa = assay: MIC against Gram-negative bacteria: Pseudomonas aeruginosa; conditions: 5×10^5 CFU/mL; for MIC against P. aeruginosa: 96-well plate, 37° C., 10 h
Summary of the method: as §1

Serratia marcescens = assay: MIC against Gram-negative bacteria: Serratia marcescens; conditions: 5×10^5 CFU/mL; for MIC against S. marcescens: 96-well plate, 37° C., 10 h
Summary of the method: as §1

Enterobacter cloacae = assay: MIC against Gram-negative bacteria: Enterobacter cloacae; conditions: 5×10^5 CFU/mL; for MIC against E. cloacae: 96-well plate, 37° C., 10 h
Summary of the method: as §1

E. coli DH5α = assay: Antibacterial activity: MIC and growth curve against E. coli DH5α in 96-well plate; conditions: minimal inhibitory concentration against E. coli DH5α; 96-well plate, 5×10^5 CFU/mL, 37° C., judged after 8 h
Summary of the method: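 Log-phase DH5α (OD600 about 0.5, 37° C, 185 rpm in LB) was pelleted, resuspended in fresh LB and seeded at 5×10^5 CFU/mL with recombinant protein at 50, 25 and 12.5 μg/mL (two-fold series), in triplicate. Plates were shaken at 175 rpm, 37° C, and OD600 was read every 30 min. MIC was the lowest concentration with no growth.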

Proteus vulgaris = assay: MIC against Gram-negative bacteria: Proteus vulgaris; conditions: 5×10^5 CFU/mL; for MIC against P. vulgaris: 96-well plate, 37° C., 10 h
Summary of the method: as §1

[1] = 10 h cultivation at 37° C., two-fold serial dilution
[2] = E. coli BL21, 10 h cultivation at 37° C.

PRT1233 (ISEPCPSYCSGHGDCISGVCFCDLGYTAAQGTCV; listed as Homo sapiens)
25 µg/mL: MIC against P. mirabilis (Proteus mirabilis; Proteus mirabilis) | MIC against P. aeruginosa (Pseudomonas aeruginosa; Pseudomonas aeruginosa) | MIC against S. marcescens (Serratia marcescens; Serratia marcescens) | MIC (E. coli DH5α)
12.5 µg/mL: MIC against E. coli BL21 (E. coli BL21; E. coli BL21) | MIC against C. diversus (Citrobacter diversus; Citrobacter diversus) | MIC against E. cloacae (Enterobacter cloacae; Enterobacter cloacae) | MIC against P. vulgaris (Proteus vulgaris; Proteus vulgaris)
50 µg/mL: MIC against M. catarrhalis (Moraxella catarrhalis; Moraxella catarrhalis) | MIC against A. hydrophila (Aeromonas hydrophila; Aeromonas hydrophila) | MIC against K. pneumonia (Klebsiella pneumonia; Klebsiella pneumonia)

PRT457 (DVDECLQGRCEQVCVNSPGSYTCHCDGRGGLKLSQDMDTCE; listed as Homo sapiens)
50 µg/mL: MIC against M. catarrhalis (Moraxella catarrhalis) | MIC against K. pneumonia (Klebsiella pneumonia) | MIC (E. coli DH5α) | MIC against P. vulgaris (Proteus vulgaris)
12.5 µg/mL: MIC against P. mirabilis (Proteus mirabilis) | MIC against A. hydrophila (Aeromonas hydrophila) | MIC against P. aeruginosa (Pseudomonas aeruginosa) | MIC against S. marcescens (Serratia marcescens)
25 µg/mL: MIC against E. coli BL21 (E. coli BL21) | MIC against C. diversus (Citrobacter diversus) | MIC against E. cloacae (Enterobacter cloacae)

PRT1138 (EINECDSDPCMNGGLCHESTIPGQFVCLCPPLYTGQFCH; listed as Homo sapiens)
50 µg/mL: MIC E. coli BL21 (E. coli BL21; [1]) | MIC C. diversus (Citrobacter diversus; [1]) | MIC S. marcescens (Serratia marcescens; [1])
25 µg/mL: MIC M. catarrhalis (Moraxella catarrhalis; [1]) | MIC A. hydrophila (Aeromonas hydrophila; [1]) | MIC P. aeruginosa (Pseudomonas aeruginosa; [1]) | MIC E. cloacae (Enterobacter cloacae; [1]) | MIC (E. coli DH5α) | MIC P. vulgaris (Proteus vulgaris; [1])
12.5 µg/mL: MIC P. mirabilis (Proteus mirabilis; [1]) | MIC K. pneumonia (Klebsiella pneumonia; [1])

PRT757 (RINYCALNKPGCEHECVNMEESYYCRCHRGYTLDPNGKTCS; listed as Homo sapiens)
12.5 µg/mL: MIC (μg/mL) E. coli BL21 (E. coli BL21; [2]) | MIC (μg/mL) C. diversus (Citrobacter diversus; 10 h cultivation at 37° C.) | MIC (μg/mL) P. mirabilis (Proteus mirabilis; 10 h cultivation at 37° C.) | MIC (μg/mL) K. pneumonia (Klebsiella pneumonia; 10 h cultivation at 37° C.)
50 µg/mL: MIC (μg/mL) M. catarrhalis (Moraxella catarrhalis; 10 h cultivation at 37° C.) | MIC (μg/mL) A. hydrophila (Aeromonas hydrophila; 10 h cultivation at 37° C.) | MIC (μg/mL) P. aeruginosa (Pseudomonas aeruginosa; 10 h cultivation at 37° C.) | MIC (μg/mL) S. marcescens (Serratia marcescens; 10 h cultivation at 37° C.) | MIC (E. coli DH5α)
25 µg/mL: MIC (μg/mL) E. cloacae (Enterobacter cloacae; 10 h cultivation at 37° C.) | MIC (μg/mL) P. vulgaris (Proteus vulgaris; 10 h cultivation at 37° C.)

PRT1266 (CMNKDHGCSHICKEAPRGSVACECRPGFELAKNQRDC; listed as Homo sapiens)
25 µg/mL: MIC against M. catarrhalis (Moraxella catarrhalis; Moraxella catarrhalis) | MIC against A. hydrophila (Aeromonas hydrophila; Aeromonas hydrophila) | MIC against P. aeruginosa (Pseudomonas aeruginosa; Pseudomonas aeruginosa) | MIC against E. cloacae (Enterobacter cloacae; Enterobacter cloacae)
12.5 µg/mL: MIC against E. coli BL21 (E. coli BL21; E. coli BL21) | MIC against C. diversus (Citrobacter diversus; Citrobacter diversus) | MIC against P. vulgaris (Proteus vulgaris; Proteus vulgaris)
50 µg/mL: MIC against P. mirabilis (Proteus mirabilis; Proteus mirabilis) | MIC against K. pneumonia (Klebsiella pneumonia; Klebsiella pneumonia) | MIC against S. marcescens (Serratia marcescens; Serratia marcescens) | MIC (E. coli DH5α)

PRT220 (DINECETTNECREDEMCWNYHGGFRCYPRNPCQDPYILTPENRCV; listed as Homo sapiens)
25 µg/mL: MIC (μg/mL) E. coli BL21 (E. coli BL21; [2]) | MIC (μg/mL) A. hydrophila (Aeromonas hydrophila; 10 h cultivation at 37° C.) | MIC (μg/mL) K. pneumonia (Klebsiella pneumonia; 10 h cultivation at 37° C.) | MIC (E. coli DH5α)
12.5 µg/mL: MIC (μg/mL) M. catarrhalis (Moraxella catarrhalis; 10 h cultivation at 37° C.) | MIC (μg/mL) C. diversus (Citrobacter diversus; 10 h cultivation at 37° C.) | MIC (μg/mL) P. mirabilis (Proteus mirabilis; 10 h cultivation at 37° C.) | MIC (μg/mL) P. aeruginosa (Pseudomonas aeruginosa; 10 h cultivation at 37° C.) | MIC (μg/mL) E. cloacae (Enterobacter cloacae; 10 h cultivation at 37° C.) | MIC (μg/mL) P. vulgaris (Proteus vulgaris; 10 h cultivation at 37° C.)
50 µg/mL: MIC (μg/mL) S. marcescens (Serratia marcescens; 10 h cultivation at 37° C.)

PRT1250 (FGARCDRYCQCFRGRCHPVDGTCACEPGYRGKYCR; listed as Homo sapiens)
25 µg/mL: MIC against P. mirabilis (Proteus mirabilis; Proteus mirabilis) | MIC against K. pneumonia (Klebsiella pneumonia; Klebsiella pneumonia) | MIC against S. marcescens (Serratia marcescens; Serratia marcescens)
12.5 µg/mL: MIC against M. catarrhalis (Moraxella catarrhalis; Moraxella catarrhalis) | MIC against A. hydrophila (Aeromonas hydrophila; Aeromonas hydrophila) | MIC against P. aeruginosa (Pseudomonas aeruginosa; Pseudomonas aeruginosa) | MIC (E. coli DH5α)
50 µg/mL: MIC against E. coli BL21 (E. coli BL21; E. coli BL21) | MIC against C. diversus (Citrobacter diversus; Citrobacter diversus) | MIC against E. cloacae (Enterobacter cloacae; Enterobacter cloacae) | MIC against P. vulgaris (Proteus vulgaris; Proteus vulgaris)

— patent US9833497B2, “Human originated EGF domain proteins and use of the same” (CHENGDU SOURCEBIO LIMITED-LIABILITY COMPANY, priority 2013, dated 2017)
